Measured values reported in PubChem BioAssay (NCI).
“And” between values parts separate entries of the source, which are not always exact repeats. Identical values can stand only once.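 Protocol summary: plate cells (96-well), add compound at 5 concentrations, incubate 48 h, interpolate endpoints linearly. GI50 = concentration required for 50% inhibition of growth. Definition used: TGI = concentration required for complete inhibition of growth.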

Experiments:
Test in all cases: NCI anticancer screen, dose series, 48 h
NCI/ADR-RES ovarian = tested on: NCI/ADR-RES ovarian
OVCAR-3 ovarian = tested on: OVCAR-3 ovarian
HS 578T breast = tested on: HS 578T breast
SR leukemia = tested on: SR leukemia
MDA-MB-435 = tested on: MDA-MB-435
KM12 colon = tested on: KM12 colon
K-562 leukemia = tested on: K-562 leukemia
RPMI-8226 leukemia = tested on: RPMI-8226 leukemia
SK-OV-3 ovarian = tested on: SK-OV-3 ovarian
UACC-257 melanoma = tested on: UACC-257 melanoma

Row | Compound | GI50 (NCI/ADR-RES ovarian) | TGI (NCI/ADR-RES ovarian) | GI50 (OVCAR-3 ovarian) | TGI (OVCAR-3 ovarian) | TGI (HS 578T breast) | TGI (SR leukemia) | GI50 (MDA-MB-435) | TGI (MDA-MB-435) | GI50 (KM12 colon) | TGI (KM12 colon) | GI50 (K-562 leukemia) | TGI (K-562 leukemia) | TGI (RPMI-8226 leukemia) | GI50 (SK-OV-3 ovarian) | TGI (SK-OV-3 ovarian) | GI50 (UACC-257 melanoma) | TGI (UACC-257 melanoma) | GI50 (HS 578T breast) [µM] | GI50 (SR leukemia) | GI50 (RPMI-8226 leukemia)
1 | CCCC(=O)Nc1ncnc2c1ncn2C1OC2COP(=O)(O)OC2C1OC(=O)CCC (configuration not stated) | > 1000 µM | > 1000 µM | > 1000 µM | > 1000 µM | > 1000 µM | > 1000 µM | > 1000 µM | > 1000 µM | > 1000 µM | > 1000 µM | > 1000 µM | > 1000 µM | > 1000 µM | > 1000 µM | > 1000 µM | > 1000 µM | > 1000 µM |  |  | 
2 | C(=C\c1nc2ccccc2s1)/c1ccc(N2CCOCC2)s1 | 37.1 µM | > 100 µM | 61.7 µM | > 100 µM | > 100 µM | > 100 µM | > 100 µM | > 100 µM | 93.8 µM | > 100 µM | > 100 µM | > 100 µM | > 100 µM | 90.7 µM | > 100 µM | 51.3 µM | > 100 µM | 37 | 58.9 µM | 25.6 µM
3 | O=C(O)CP(=O)(c1ccccc1)c1ccccc1.O=C(O)CP(=O)(c1ccccc1)c1ccccc1.[Cd] | 21.9 µM | 52.2 µM | 2.56 µM | 15.4 µM | > 100 µM | 31.8 µM | 4.26 µM | 22.4 µM | 7.97 µM | 22.7 µM | 15.1 µM | 36.8 µM | 0.991 µM | 20.2 µM | 44.5 µM | 15.4 µM | 31.4 µM | 19.4 | 13.6 µM | 0.277 µM
4 | CCNC(=O)c1ccc2c(c1)nc(-c1ccc(Cl)cc1)n2-c1cc(C(C)(C)C)[nH]n1 | 2.54 µM | 9.33 µM | 2.49 µM | 7.77 µM | 7.6 µM | 9.32 µM | 1.09 µM | 5.35 µM | 3.12 µM | 36.8 µM | 3.35 µM | 16.8 µM | 14.1 µM | 3.6 µM | 17.3 µM | 3.59 µM | 30.5 µM | 2.58 | 1.06 µM | 2.84 µM
5 | C/C=C(\C)C(=O)OC1C2C(C)C(=O)OC2C(O)C(C)C2C=CC(=O)C21C (configuration not stated) |  | 49.9 µM |  | 23.7 µM | > 64.7 µM | 18.3 µM |  | 26.1 µM |  | 30.3 µM |  | 17.4 µM | 32.1 µM |  | 39.6 µM |  | 30.2 µM |  |  | 
6 | CCCN(CCC)c1ccc(/C=N/NC(=O)c2cccnc2)cc1 | 18 µM | > 100 µM | 20.1 µM | 45.3 µM | 87.1 µM | > 100 µM | 3.63 µM | > 100 µM | 20.3 µM | > 100 µM | 8.02 µM | > 100 µM | > 100 µM | 30.6 µM | > 100 µM | 31 µM | > 100 µM | 22 | 6.82 µM | 80.5 µM
7 | CN1CCN(CCCN2c3ccccc3Sc3ccc(C(F)(F)F)cc32)CC1 | 1.91 µM | 4.61 µM and 25 µM and 25.5 µM | 1.93 µM and 6.26 µM and 13.8 µM | 3.76 µM and 20.4 µM and 27 µM | 8.41 µM and 14.7 µM and 20.6 µM | 7.95 µM and > 20.4 µM and 27.2 µM | 1.69 µM | 3.29 µM and 9.49 µM and 11.4 µM | 1.85 µM | 3.48 µM and 10.7 µM and 11.4 µM | 2.13 µM and 2.01 µM and 4.6 µM | 4.27 µM and 28.6 µM | 5.09 µM and 22.1 µM | 1.92 µM | 4.15 µM and 27.7 µM and 28.2 µM |  | 3.73 µM and 3.75 µM and 6.55 µM | 2.22 | 2.72 µM and 2.09 µM and 8.62 µM | 2.21 µM and 2.06 µM and 6.37 µM
8 | O=c1cc(-c2ccccc2)nc2cc(-c3ccco3)[nH]n12 | 11.4 µM | 50.9 µM | 10.8 µM | 37.1 µM | 37.3 µM | 82.5 µM | 1.97 µM | 5.67 µM | 3.26 µM | 50.6 µM | 4.06 µM | > 100 µM | 89.9 µM | 14.2 µM | 82.8 µM | 17.3 µM | > 100 µM | 7.1 | 3.14 µM | 13.7 µM
9 | COc1ccc2c(c1)c(-c1nc(-c3cn(C)c4ncccc34)cs1)cn2CCCCN1CCOCC1 | 1.72 µM | 5.05 µM | 1.62 µM | 3.38 µM | 5.46 µM | 1.98 µM | 1.12 µM | 2.58 µM | 1.42 µM | 3.09 µM | 0.675 µM | 1.61 µM | 3.89 µM | 4.22 µM | 15.2 µM | 1.66 µM | 3.28 µM | 1.22 | 0.724 µM | 1.25 µM
10 | COc1cc(C(=O)Nc2cc(O)c(C/C=C(\C)CCC=C(C)C)c(O)c2)cc2c1O[C@]1(C)CC[C@@H](O)C(C)(C)[C@H]1C2 | 9.22 µM and 6.62 µM | > 76.4 µM | 3.17 µM and 1.76 µM | 6.12 µM | 14.8 µM | 7.2 µM and 5.93 µM | 0.325 µM and 1.26 µM | 13 µM | 2.39 µM and 1.52 µM | 12.8 µM | 0.0359 µM and 0.0659 µM | 2.17 µM and 2.6 µM | 0.0806 µM and 0.0958 µM | 0.0926 µM and 0.114 µM | 22.7 µM | 4.91 µM and 1.58 µM | 23.8 µM | 0.0144 | 0.0382 µM and 0.0219 µM | 0.00911 µM and 0.0197 µM
11 | Nc1ncnc2c1c(C(=O)NO)cn2C1OC(CO)C(O)C1O (configuration not stated) | 0.137 µM |  | 0.278 µM | 2.42 µM | 3.54 µM | 1.88 µM | 0.363 µM | 1.9 µM | 0.267 µM |  | 0.79 µM | > 100 µM |  | 0.239 µM | 2.07 µM | 0.522 µM | 3.52 µM | 0.331 | 0.329 µM | 0.282 µM
12 | O=C(Nc1ccc(O)c(NS(=O)(=O)c2ccc(F)cc2)c1)c1ccc(-c2ccccc2)cc1 | 5.67 µM | 20.7 µM | 4.72 µM | 22.1 µM | 31.8 µM | 9.3 µM | 8.12 µM | 26 µM | 10 µM | 23.3 µM | 3.68 µM | 14.6 µM | 18.2 µM | 18.8 µM | 44.2 µM | 5.71 µM | 46.6 µM | 5.42 | 2.47 µM | 2.87 µM
13 | Cc1nc2sc(C(=O)Nc3cccc(Cl)c3C)c(N)c2cc1C(=O)c1ccccc1 | 0.192 µM |  | 0.176 µM | 1.37 µM | > 50 µM | 16.9 µM | 0.0988 µM | 0.257 µM | 0.225 µM | > 50 µM | 0.199 µM | > 50 µM | > 15.9 µM | 0.229 µM | > 50 µM | 14.6 µM | > 50 µM | 0.194 | 0.131 µM | 0.249 µM
